Measurements from patent publication US11912970B2, “Universal microfluidic culture system to analyze and control cell dynamics” (The University of Chicago, priority 2017, dated 2024).

Legend:
[1] = tested on: Hes5-GFP expression in NSCs; experiment: NSCs Hes5-GFP expression under sequential ligand inputs (permutation test and decision tree analysis); type: cell-based, mouse; settings: for Hes5 expression relative to control: sequential input
Excerpt: (§1) Murine hematopoietic stem cells (HSC) are isolated by FACSAria III flow cytometer (BD Biosciences) as Lin−/c-Kit+/Sca-1+/CD48−/CD150+/CD34− (lineage, Lin: CD3e/CD11b/CD19/CD41/B220/Gr-1/Ter-119), which are approximately 50% pure HSCs. Macrophage colony-stimulating factor (M-CSF), a myeloid cytokine released during infection and inflammation, is employed to induce HSCs differentiation. Human CD34+ cells were isolated from mononuclear cells using EasySepTM human CD34 positive selection kit (Stemcell Technologies, Vancouver, BC, Canada). CD34+CD38−CD45RA−CD90+CD49f+ HSCs were sorted using a FACSAria III flow cytometer (BD Biosciences). Pro- and anti-inflammatory cytokines including TNF, IFN[…], IL-6, IP10 and MCP-1 are introduced into the cellular environment as single ligand and in combination. Embryonic NSCs with Hes-GFP and Dcx-RFP reporters were isolated at embryonic day 13.5 from a transgenic mice carrying Hes-GFP and Dcx-RFP using standard protocol (Woo, et al., 2009; Basak, et al., 2007). The resulting primary cells were verified to carry both Hes5-GFP and Dcx-RFP after isolation and allowed to grow for few passages before use in the experiments (Giachino, et al., 2009). NSCs were cultured as neurospheres in culture media (DMEM/F12+Glutamax (Gibco No:31331-028); 10 U/ml penicillin; 10 ug/ml Streptomycin; B27 supplement (1:50); FGF growth factor 0.02 ug/ml). As NSCs are sensitive to environmental variations, cell handling protocol before loading into the chip is examined systematically (including dissociation, FACS sorting, etc.). To obtain the optimal results, NSCs spheres are collected and loaded into the chip 24 hours after fresh dissociation wherein each sphere contains ˜7 to 10 cells. […]
(§2) For image acquisition, a Nikon Ti-ECLIPSE microscope with an automated translation stage and a digital CMOS camera (ORCA-Flash 4.0, Hamamatsu, Japan) was used. […] Bright field and fluorescence images were acquired and analyzed using a customized MATLAB program (Mathworks, […]). The algorithm extracts single cell traces including position, nuclear and cytoplasm fluorescence level. For example, the 3T3 cell nuclear area in each image is identified via the fluorescent nuclear marker GFP, and then the mean value of the nuclear intensity of the p65-DsRed marker is measured, and plotted as a function of time.
(§3) To investigate the role of combinatorial or temporal ordering of signals in NSC differentiation, the inventors cultured NSCs under combinatorial and sequential applications of the six regulatory ligands (FIG. 8A, FIGS. 22 and 23). […] The inventors measured the ratio of the ligand-treated cells to untreated control for cell number and Hes5-GFP expression intensity. […] Multiple experiments were repeated resulting in nearly 3000 dynamic cultures analyzed. […]

[2] = tested on: NSCs; experiment: NSCs proliferation (cell number) under sequential ligand inputs (permutation test and decision tree analysis); type: cell-based, mouse; settings: sequential input
Excerpt: as §1, §2, §3

[3] = tested on: NSCs; experiment: NSCs proliferation (cell number) under combinatorial ligand inputs (permutation test and decision tree analysis); type: cell-based, mouse; settings: ligands in isolation or as a pair (synergy)
Excerpt: (§4) Murine hematopoietic stem cells (HSC) are isolated by FACSAria III flow cytometer (BD Biosciences) as Lin−/c-Kit+/Sca-1+/CD48−/CD150+/CD34− (lineage, Lin: CD3e/CD11b/CD19/CD41/B220/Gr-1/Ter-119), which are approximately 50% pure HSCs. Macrophage colony-stimulating factor (M-CSF), a myeloid cytokine released during infection and inflammation, is employed to induce HSCs differentiation. Human CD34+ cells were isolated from mononuclear cells using EasySepTM human CD34 positive selection kit (Stemcell Technologies, Vancouver, BC, Canada). CD34+CD38−CD45RA−CD90+CD49f+ HSCs were sorted using a FACSAria III flow cytometer (BD Biosciences). […]
as §2, with “time. […]” for “time.”

[4] = tested on: NSCs; experiment: NSCs cell fate (self-renewal or differentiation) from Hes5 level and cell numbers under sequential stimulation; type: cell-based, mouse; settings: for cell fate outcome: sequential input
Excerpt: (§5) Murine hematopoietic stem cells (HSC) are isolated by FACSAria III flow cytometer (BD Biosciences) as Lin−/c-Kit+/Sca-1+/CD48−/CD150+/CD34− (lineage, Lin: CD3e/CD11b/CD19/CD41/B220/Gr-1/Ter-119), which are approximately 50% pure HSCs. Macrophage colony-stimulating factor (M-CSF), a myeloid cytokine released during infection and inflammation, is employed to induce HSCs differentiation. Human CD34+ cells were isolated from mononuclear cells using EasySepTM human CD34 positive selection kit (Stemcell Technologies, Vancouver, BC, Canada). CD34+CD38−CD45RA−CD90+CD49f+ HSCs were sorted using a FACSAria III flow cytometer (BD Biosciences). Pro- and anti-inflammatory cytokines including TNF, IFN[…], IL-6, IP10 and MCP-1 are introduced into the cellular environment as single ligand and in combination. Embryonic NSCs with Hes-GFP and Dcx-RFP reporters were isolated at embryonic day 13.5 from a transgenic mice carrying Hes-GFP and Dcx-RFP using standard protocol (Woo, et al., 2009; Basak, et al., 2007). The resulting primary cells were verified to carry both Hes5-GFP and Dcx-RFP after isolation and allowed to grow for few passages before use in the experiments (Giachino, et al., 2009). NSCs were cultured as neurospheres in culture media (DMEM/F12+Glutamax (Gibco No:31331-028); 10 U/ml penicillin; 10 ug/ml Streptomycin; B27 supplement (1:50); FGF growth factor 0.02 ug/ml). As NSCs are sensitive to environmental variations, cell handling protocol before loading into the chip is examined systematically (including dissociation, FACS sorting, etc.). To obtain the optimal results, NSCs spheres are collected and loaded into the chip 24 hours after fresh dissociation wherein each sphere contains ˜7 to 10 cells. To avoid potential artifacts due to prolonged in vitro culture, only NSCs within 10 passages were used in the study.
To investigate the role of combinatorial or temporal ordering of signals in NSC differentiation, the inventors cultured NSCs under combinatorial and sequential applications of the six regulatory ligands (FIG. 8A, FIGS. 22 and 23). For each independent NSC culture on the chip, the inventors introduced either one ligand each day (sequential inputs), or a combination of the selected ligands over a six-day period (combinatorial inputs). The inventors measured the ratio of the ligand-treated cells to untreated control for cell number and Hes5-GFP expression intensity. Each chip experiment consisted of 63 combinatorial and 720 sequential stimulation experiments, with duplicates (FIG. 8B). Multiple experiments were repeated resulting in nearly 3000 dynamic cultures analyzed. The inventors subjected all experimental outputs of NSC cell numbers and Hes5 expression to regression and classification tree analyses. […]

[5] = tested on: NF-κB in 3T3 cells; experiment: TNF-alpha induced NF-κB activation in 3T3 fibroblasts on chip; type: cell-based, mouse
Excerpt: The inventors took advantage of the long-term stable culture capability of the device and extended TNF-alpha induced NF-κB activation study in 3T3 fibroblasts for up to a week. The response of 3T3 cells to TNF-alpha stimulation is characterized by the nuclear translocation of transcription factor NF-κB, and visualized through automated fluorescence imaging (Kellogg, et al., 2015). Both single cells and a population of cells were successfully maintained in the present culture chambers, and were stimulated with series of TNF-alpha concentrations (0.001 to 100 ng/ml), which were simultaneously generated on-chip. […]
as §2

[6] = tested on: human HSCs; type: cell-based; settings: TNF with other participating cytokines
Method: FIG. 3C depicts a chart of long-term culture and TNF stimulation of human hematopoietic stem cells (HSCs). Cells were cultured on the microfluidic device in the absence of TNF (control) and 1 ng/ml TNF, for up to 5 days. […] N indicates cell numbers per chamber. […] D represents dynamic cytokine inputs, daily variation between 0.1 and 10 ng/ml.
Besides being a signaling protein involved in systemic inflammation, TNF-alpha is also widely employed to mimic the post-transplantation signaling environment (Mohabbat, et al., 2012). To mimic clinical hematopoietic stem cell transplantation (HSCT), different doses of TNF-alpha are directed to designated culture chambers housing HSCs by programmed medium exchange procedures. […] In both cases, cells proliferate at a similar, if not higher, rate than those in bulk experiments in traditional culture dishes.
as §4, with “Canada).” for “Canada). CD34+CD38−CD45RA−CD90+CD49f+ HSCs were sorted using a FACSAria III flow cytometer (BD Biosciences).”

[7] = tested on: Hes5-GFP expression in NSCs; experiment: NSCs Hes5 expression under combinatorial ligand inputs (permutation test and decision tree analysis); type: cell-based, mouse; settings: combinatorial input; for Hes5 expression, mean ratio relative to control: decision tree
Excerpt: as §5
For image acquisition, a Nikon Ti-ECLIPSE microscope with an automated translation stage and a digital CMOS camera (ORCA-Flash 4.0, Hamamatsu, Japan) was used. The stage and image acquisition was controlled via the NIS Elements software. Bright field and fluorescence images were acquired and analyzed using a customized MATLAB program (Mathworks, […]). The algorithm extracts single cell traces including position, nuclear and cytoplasm fluorescence level. For example, the 3T3 cell nuclear area in each image is identified via the fluorescent nuclear marker GFP, and then the mean value of the nuclear intensity of the p65-DsRed marker is measured, and plotted as a function of time.
To investigate the role of combinatorial or temporal ordering of signals in NSC differentiation, the inventors cultured NSCs under combinatorial and sequential applications of the six regulatory ligands (FIG. 8A, FIGS. 22 and 23). For each independent NSC culture on the chip, the inventors introduced either one ligand each day (sequential inputs), or a combination of the selected ligands over a six-day period (combinatorial inputs). The inventors measured the ratio of the ligand-treated cells to untreated control for cell number and Hes5-GFP expression intensity. Each chip experiment consisted of 63 combinatorial and 720 sequential stimulation experiments, with duplicates (FIG. 8B). Multiple experiments were repeated resulting in nearly 3000 dynamic cultures analyzed. The inventors subjected all experimental outputs of NSC cell numbers and Hes5 expression to regression and classification tree analyses. NSCs' cellular states were categorized into two groups: differentiation (with decreased Hes5 level and cell numbers) and self-renewal (with increased Hes5 level and cell numbers) (FIG. 8D).
In this work, the inventors use decision tree analysis to generate descriptive and predictive models which map measurements about cell phenotypic features (i.e., cell count and Hes5-GFP expression) to experimental conditions (i.e., sequential and combinatorial application of six regulatory ligands) (Breiman, 1984). […]

[8] = tested on: Hes5-GFP expression in NSCs; experiment: NSCs Hes5 level with sole presence of one ligand, on-chip culture; type: cell-based, mouse
Method: FIG. 6B depicts a histogram of Hes5-GFP expression in NSCs before (red) and after (black) one week culture with 100 ng/ml PDGF. High levels of Hes5 in NSCs indicate maintenance of stem cell state, while reduced Hes5 indicates progress towards differentiation.
Murine hematopoietic stem cells (HSC) are isolated by FACSAria III flow cytometer (BD Biosciences) as Lin−/c-Kit+/Sca-1+/CD48−/CD150+/CD34− (lineage, Lin: CD3e/CD11b/CD19/CD41/B220/Gr-1/Ter-119), which are approximately 50% pure HSCs. Macrophage colony-stimulating factor (M-CSF), a myeloid cytokine released during infection and inflammation, is employed to induce HSCs differentiation. […]
as §2

For “EGF: signaling ligand whose receptor is highly expressed during mouse forebrain development (NSYPGCPSSYDGYCLNGGVCMHIESLDSYTCNCVIGYSGDRCQTRDLRWWELR; not fully specified; Epidermal growth factor; UniProt P01132 977-1029, looked up)”, the “Hes5 expression relative to control” value ([1]; ligand added at day 1) was 86.8 % of the control, the “cell number raised by a factor” value ([2]; CXCL added at day 1, ligand added at day 2) was 1.19 factor and the “cell number raised by a factor” value ([2]; Jagged added at day 1, ligand added at day 2) was 1.38 factor. The “effect on cell number” value ([2]; ligand added at day 1 alone) was “does not introduce significant increase of cell number”, the increased cell number [3] was 60% and the Hes5 expression ([4]; six-ligand sequence, ligand application moved to day 6) was “significant reduction in Hes5 expression”. The “Hes5 expression and cell numbers” value ([4]; six-ligand sequence, ligand delivered on day 2) was “high Hes5 expression levels and unchanged cell numbers”.
TNF-alpha was tested, and the “single cell response to pulse stimulation (NF-κB)” value ([5]; 0.1 and 0.2 ng/ml, first pulse, single cell level) was “all cells respond to the first pulse stimulation” and the “cytoplasm NF-κB level” value ([5]; prolonged incubation and stimulation for one week) was “proportional to TNF-alpha concentration”.
For “IFNγ: cytokine combined with TNF on human HSCs”, the “effect on TNF induced cell death” value [6] was “neutralize TNF induced cell death”.
PDGF was tested, and the Hes5 expression outcome ([1]; decision tree, ligand present on the 1st day of culture) was “high Hes5 expression levels”, the “Hes5 expression relative to control” value ([1]; DLL added at day 1, ligand applied at day 2) was 89.2 % of the control level and the “Hes5 expression relative to control” value ([1]; ligand added at day 1) was 126.6 % of the control. The “cell number relative to control” value ([2]; ligand added at day 1) was 85.4 % of the control, the “Hes5 expression, mean ratio relative to control” value ([7]; PDGF present, without DLL) was 1.22 and the “Hes5 expression, mean ratio relative to control” value ([7]; PDGF present, without DLL, CXCL) was 1.37. The “Hes5 expression, mean ratio relative to control” value ([7]; PDGF present, without DLL, CXCL or EGF) was 1.56, the “Hes5 expression, mean ratio relative to control” value ([7]; ligand present) was ≥ 1.11 and the “increase of Hes5 expression by a factor” value ([7]; permutation test) was 1.06 factor. For the same substance, the “Hes5 expression relative to control” value ([7]; permutation test, combined with DLL) was 99.3 % of the control level, the “increase of Hes5 level from its initial value” [8] was “around 25%” and the cell fate outcome ([4]; DLL in day-1, ligand moved to day-2) was “promoting differentiation”. For the same substance, the cell fate outcome ([4]; ligand at day 1) was “NSCs self-renewal”.
